# Reference: patent publication US20130331427A1, “METHODS OF STIMULATING CELLULAR GROWTH, SYNAPTIC, REMODELING AND CONSOLIDATION OF LONG-TERM MEMORY” (Blanchette Rockefeller Neuroscience Institute, priority 2007, published 2013)
# “Also recorded” adds a separate entry of the source.
# Tests used:
# Hermissenda Crassicornis = experiment: Pavlovian conditioning of Hermissenda, memory retention; assay type: in vivo
# Procedure: Specimens of Hermissenda Crassicornis were maintained in artificial sea water (ASW) at 15° for three days in perforated 50-ml conical centrifuge tubes before starting experiments. […] For selected experiments lactacysteine (10 μM) or anisomycin was added to the ASW.
# Pavlovian conditioning of Hermissenda involves repeated pairings of a neutral stimulus, light, with an unconditioned stimulus, orbital shaking. (See, Lederhendler et al. (24) and Epstein et al. (6)). A rotation/shaking stimulus excites the statocyst hair cells and thereby elicits an unconditioned response: a brisk contraction of the muscular undersurface called a foot, accompanied by adherence or “clinging” to the surface that supports the foot. Before conditioning, light elicits a weakly positive phototaxis accompanied by lengthening of the foot. After sufficient light-rotation pairings, light no longer elicits phototaxis, but instead elicits a new response (24): the “clinging” and foot shortening previously elicited only by the unconditional stimulus (FIG. 1). Thus, the meaning of the unconditioned stimulus, rotation or orbital shaking, has been transferred to the conditioned stimulus and is manifested by a light-elicited foot contraction—a negative change of foot length. This conditioned response to light can last for weeks, is not produced by randomized light and rotation, is stimulus-specific, and shares the other defining characteristics of mammalian Pavlovian Conditioning.
# Pavlovian conditioning of Hermissenda has well-defined training parameters that produce progressively longer-lasting retention of the learned conditioned response. Two training events (2 TE) of paired light and orbital shaking (see “Methods”), for example, induce a learned conditioned response (light-elicited foot contraction or shortening) that persists without drug treatment for approximately 7 minutes. Four to six training events (4-6 TE) induce a conditioned response that persists up to several hours, but disappears approximately by 1 day after training. Nine TE produces long-term associative memory lasting many days and often up to two weeks.
# All animals were tested with the CS alone at 4 h, then at 24-h intervals.
# PKC [1] = experiment: PKC activity (histone phosphorylation) in Hermissenda nervous systems; assay type: in vivo
# Procedure: (§1) Cells were homogenized by sonication (5 sec, 25 W) in 100 μl of 100 mM Tris-HCL pH 7.4 buffer containing 1 mM EGTA, 1 mM PMSF, and 50 mM NaF. Homogenate was transferred to a polyallomer centrifuge tube and was centrifuged at 100,000×g for 10 min at 4°. The supernatant was removed and immediately frozen on dry ice. The particulate fraction was resuspended by sonication in 100 μl of the same buffer and stored at −80°. To measure PKC, 10 μl of cytosol or particulate fraction was incubated for 15 min at 37° in the presence of 10 μM histones, 4.89 mM CaCl2, 1.2 μg/μl phosphatidyl-L-serine, 0.18 μg/μl 1.2-dioctanoyl-sn-glycerol, 10 mM MgCl2, 20 mM HEPES (pH 7.4), 0-8 mM EDTA, 4 mM EGTA, 4% glycerol, 8 μg/ml aprotinin, 8 μg/ml leupeptin, and 2 mM benzamidine. 0.5 μCi [γ^32-P]ATP was added and ^32P-phosphoprotein formation was measured by adsorption onto phosphocellulose as described previously (25). This assay was used with slight adjustments for either Hermissenda nervous system homogenates or cultured mammalian neuron homogenates.
# Histone phosphorylation (See “Methods”) in isolated circumesophageal nervous systems was then measured in the cytosol fraction. […] (FIG. 12, 13).
# PKC [2] = experiment: PKC activity in cultured rat hippocampal H19-7/IGF-IR cells; assay type: cell-based
# Procedure: as §1
# Rat hippocampal H19-7/IGF-IR cells (ATCC) were plated onto poly-L-lysine coated plates and grown at 35° in DMEM/10% FCS for several days until approx. 50% coverage was obtained. The cells were then induced to differentiate into a neuronal phenotype by replacing the medium with 5 ml N2 medium containing 10 ng/ml basic fibroblast growth factor and grown in T-25 flasks at 39° C. (26). […] After a specified interval, the medium was removed and the cells were washed with PBS, removed by gentle scraping, and collected by centrifugation at 1000 rpm for 5 min.
# These differentiate to have a neuronal phenotype when induced by basic fibroblast growth factor in N2 medium (26) and express a normal complement of neuronal proteins, including PKC.
# Both the initial PKC activation and subsequent downregulation have been previously described and were confirmed by measurement of PKC activity in membrane and cytosol.
# PKCδ = biological target: T1, PKCδ (Rattus norvegicus, UniProt P09215); experiment: acute hippocampal slices, PKCδ activation; assay type: cell-based
# T1 construct: from tissue; host or cells: hippocampal slices
# ELAV = experiment: acute hippocampal slices, nuclear export of ELAV; assay type: cell-based; settings: 120-min incubation
# presynaptic markers = experiment: pre- and postsynaptic markers, quantitative confocal immunohistochemistry; assay type: in vivo, rat; settings: bryostatin alone
# From the text: Water maze training increased the numbers of the dendritic spine marker spinophilin (FIG. 29; Panel B), postsynaptic membrane marker neurogranin (FIG. 29; Panels A and D), and presynaptic marker GAP-43 (Panels A and E), but not the axon bouton marker synaptophysin (FIG. 29; Panels A and B), as determined by quantitative confocal immunohistochemistry.
# PKCα = biological target: T2, PKCα (Rattus norvegicus, UniProt P05696); assay type: cell-based
# T2 construct: from tissue; host or cells: acute hippocampal slices
# rats = experiment: rat spatial (water) maze learning and memory; assay type: in vivo
# dendritic spines = dendritic spines of rats trained in a spatial maze task; assay type: in vivo, rat
# From the text: On retention day 2, confocal microscopy and […] were used to study filopodia and dendritic spines: mushroom, thin and stubby spines (Panel A).
# PKC [3] = settings: cited from earlier work
# CA1 neurons = experiment: acute hippocampal slices, number of dendritic spines (spinophilin); assay type: cell-based; settings: 0.1 nM, spine marker spinophilin
# [4] = single dose 0.28 nM for 30 minutes
# T1 sequence (P09215 whole entry): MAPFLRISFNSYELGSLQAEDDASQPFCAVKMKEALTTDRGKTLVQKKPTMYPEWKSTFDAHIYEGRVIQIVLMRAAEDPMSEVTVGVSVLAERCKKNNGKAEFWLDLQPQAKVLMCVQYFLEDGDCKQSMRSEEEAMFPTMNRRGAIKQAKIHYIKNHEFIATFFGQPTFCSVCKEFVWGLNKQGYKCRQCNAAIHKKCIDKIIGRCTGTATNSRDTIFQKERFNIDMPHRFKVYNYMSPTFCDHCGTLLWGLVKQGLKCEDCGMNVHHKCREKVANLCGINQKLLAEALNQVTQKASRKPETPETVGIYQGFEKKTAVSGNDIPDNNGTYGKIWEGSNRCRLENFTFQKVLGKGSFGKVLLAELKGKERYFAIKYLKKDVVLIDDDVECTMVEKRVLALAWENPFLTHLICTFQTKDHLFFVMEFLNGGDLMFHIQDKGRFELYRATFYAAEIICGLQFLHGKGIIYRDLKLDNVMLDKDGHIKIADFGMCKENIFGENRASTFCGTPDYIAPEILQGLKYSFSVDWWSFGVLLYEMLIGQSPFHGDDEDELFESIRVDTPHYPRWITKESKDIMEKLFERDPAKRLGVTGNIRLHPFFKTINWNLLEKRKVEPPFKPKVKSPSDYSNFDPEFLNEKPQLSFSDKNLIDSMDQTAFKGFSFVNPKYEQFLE
smiles,measurement,setting,value
"CCC/C=C/C=C/C(=O)O[C@H]1/C(=C/C(=O)OC)C[C@H]2C[C@H]([C@@H](C)O)OC(=O)C[C@H](O)C[C@@H]3C[C@H](OC(C)=O)C(C)(C)[C@](O)(C[C@@H]4C/C(=C/C(=O)OC)C[C@H](/C=C/C(C)(C)[C@]1(O)O2)O4)O3 [bryostatin, bryostatin-1]",memory retention,"Hermissenda Crassicornis; 2 TE plus bryostatin 0.25 ng/ml for 4 h during and after training, minutes without",lasting hours
same,memory retention,Hermissenda Crassicornis; 4 TEs plus bryostatin 0.25 ng/ml for 4 h,> 24 h
same,retention,"Hermissenda Crassicornis; 20 h pre-exposure 0.25 ng/ml, 4-paired TE, at 48 h",persisted
same,time by which retention was gone,"Hermissenda Crassicornis; 20 hr exposure 0.25 ng/ml, 2-paired TE",≤ 48 h
same,concentration that inhibited acquisition and behavioral retention,Hermissenda Crassicornis; all training conditions tested,greater than 1.0 ng/ml
same,"memory after 2, 4, or 6 training trials",Hermissenda Crassicornis; low doses (0.1-0.25 ng/ml),markedly enhanced memory
same,conditioned response,Hermissenda Crassicornis; randomized presentations of light and rotation,no conditioned response
same,time after which behavioral retention was lost,"Hermissenda Crassicornis; single 4 h exposure 0.25 ng/ml alone, 2-paired TEs 24 hrs later",≤ 24 h
same,concentrations that augment acquisition and memory retention,Hermissenda Crassicornis; sub-optimal (4 TE) training,< 0.50 ng/mL
same,long-term retention (LTR) post-training,"Hermissenda Crassicornis; three successive days of 4-h exposure 0.25 ng/ml, 2-TEs one day later",≥ 96 h
same,long-term retention,"Hermissenda Crassicornis; two successive days of 4-h exposure 0.25 ng/ml, 2-paired TEs",at least 6 days
same,"PKC activity, cytosol fraction","PKC [1]; 0.28 nM, 4 hour exposures, 10 minutes and 24 hours after the second of two exposures",significantly increased over baseline levels
same,"PKC activity, membrane fraction",PKC [1]; 24 hours after the second of two exposures,significantly increased over baseline
same,"PKC activity, cytoplasmic fraction",PKC [2]; exposed twice within a 2-hour period,significant reduction
same,membrane-bound PKC downregulation,PKC [2]; second 30-minute exposure after a 2- to 4-hour delay,eliminated the significant downregulation
same,"PKC activity, cytoplasmic fraction",PKC [2]; second exposure 4 hours after the first,increased above baseline
same,membrane-bound PKC after the brief translocation,PKC [2]; [4],prolonged downregulation
same,translocation of PKC from the cytosol to the particulate fraction,PKC [2]; [4],approx 60%
same,"PKC activity, cytoplasmic fraction",PKC [2]; within the first 4 hours after exposure,no significant alteration
same,activation of PKCδ,PKCδ,but not PKCδ
same,ELAV transport,ELAV,significantly transported to dendrites
same,number of presynaptic markers,presynaptic markers,increased
same,activation of PKCα,PKCα,stimulates translocation to the plasma membrane; also recorded: selectively activated
same,latency to reach the platform,"rats; 10 μg/kg i.p. 20 min before training on day 1, 3, 5, vs. controls",greatly reduced
same,number of target crossings,rats; retention Day 1,similarly enhanced
same,time to reach the target quadrant,"rats; retention day 1, 24 hours after all training",reduced
same,filopodia or thin spines,dendritic spines; all conditions,no changes
same,number of stubby spines,dendritic spines; bryostatin alone (without training),augmented
same,total numbers of filopodia and (all shape) spines,dendritic spines; only bryostatin,similarly increased
same,water-maze-induced increase in number of mushroom spines,"dendritic spines; retention day 2, training plus bryostatin",enhanced
same,increase in total numbers of filopodia and spines,dendritic spines; water maze rats also treated with bryostatin,enhanced
same,concentrations that activate PKC,PKC [3],sub-nanomolar
same,number of dendritic spines,CA1 neurons,augmented
same,number of dendritic spines,CA1 neurons; listed as Bryostatin,increased
